The source of these data is publication PMC2995924 (International journal of high throughput screening, 2010).

Like-named read-outs stand apart in the source and are kept apart here.

For assay [1], the target named is T1, rat S100B (Rattus norvegicus, UniProt P04631).
T1 sequence (P04631 1-92): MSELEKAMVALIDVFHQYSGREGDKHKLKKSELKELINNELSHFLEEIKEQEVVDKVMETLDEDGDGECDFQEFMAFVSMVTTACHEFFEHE
Briefly: Fluorescence polarization competition assay. The class given is binding. (In general: Polarisation of emitted light reports the rotation of a fluorescent probe.)

Assay [2] deals with T2, Ca2+-bound S100B (Rattus norvegicus, UniProt P04631).
T2 sequence (P04631 1-92): T1 sequence (P04631 1-92)
Briefly: NMR 1H-15N HSQC chemical shift perturbation secondary screen. Format: binding. The note with it: for NMR (confirmed to bind S100B via NMR HSQC experiments): 10-fold excess compound versus S100B (100 μM; 10 mM Ca2+).

Assay [3] deals with T3, S100B (Rattus norvegicus, UniProt P04631).
T3 sequence (P04631 1-92): T1 sequence (P04631 1-92)
Briefly: Binding monitored by change in the compound's intrinsic fluorescence.

For assay [4], the target named is TAMRA-TRTK. Briefly: fluorescence polarisation.
Assay [5] concerns the target T1, rat S100B. Briefly: Fluorescence polarization binding assay of labeled peptides. The note with it: Ca2+-S100B.

In assay [1], `CN(C)CCCN1c2ccccc2Sc2ccc(Cl)cc21` [SC0067, chlorpromazine] gave an IC50 of 2220 ± 1360 µM and a Kd of 697 ± 428 µM.

For the compound `C[CH2][Hg][S]c1ccccc1C(=O)[O-].[Na+]` [SC0332, thimerosal], the “NMR (confirmed to bind S100B via NMR HSQC experiments)” value in assay [2] was “Yes”. Also, the Kd in assay [1] (calculated from FPCA IC50 with the equation of Nikolovska-Coleska et al) is 55.2 ± 5.1 µM.

`C[n+]1cc2c3c(ccc2c2ccc4cc5c(cc4c21)OCO5)OCO3` [SC0844, sanguinarine]: the Kd was 5.8 µM in assay [3] and 10.7 ± 4.9 µM in assay [1]. Besides, the “NMR (confirmed to bind S100B via NMR HSQC experiments)” value in assay [2] is “Yes”. In assay [1], this compound gave an IC50 of 35.9 ± 16.4 µM.

In the case of `O=C(O)c1ccccc1S` [thiosalicylic acid], in assay [2] (1 mM compound added to 100 μM S100B, fast-exchange regime), the “Chemical shift perturbations of the HSQC NMR spectra” value is listed as “significant chemical shift perturbations”. The “Inhibition of TAMRA-TRTK binding in the FPCA” value in assay [1] (even at 2.5 mM compound) is given as “did not significantly inhibit”.

For the compound “C68/84S mutant rat S100B (natural protein)”, the Kd in assay [4] was determined as 2.42 µM.

Regarding “FITC-p53_367–393: FITC-labeled peptide of human p53 residues 367–393”, in assay [5], the “Affinity (KD) of FITC-labeled peptide compared with unlabeled version” value is “significantly higher affinity than the unlabeled version”.

As a reminder, the IC50 is the concentration that gives 50% inhibition. The low end stands for greater potency, the high end for weaker potency. The term Kd denotes the equilibrium constant for the complex coming apart.
